In data set [1] the test system is RKO cells. The data set can be described thus: Cytotoxicity and IC50 comparison with CBI by WST assay, 48 hours. The format is cell-based, human. The following applies: WST-8. Here is the method:
(§1) From the cell lines mentioned above, a large intestine cancer cell line SW480 was used as cells expressing PD-1, and a large intestine cancer cell line RKO was used as cells expressing PD-L1. An experiment was conducted to compare toxicity and IC50 between the PIP-drug conjugate compound CCC07-01 and the alkylating agent CBI used as a drug conjugate therein. The cells of each line were inoculated at 3000 cells/well to a 96-well microplate and cultured overnight. On the next day, the cells were treated with the PIP-CBI conjugate (CCC07-01) or CBI having a concentration of 0.1, 1, 10, 30, 100, 300, or 1000 nM (1 μM) for 48 hours. Then, WST-8 reagent was added to each well using Cell counting kit-8, and the mixture was reacted for 2 hours. Then, the cell count was calculated at a wavelength of 450 nm by the colorimetric analysis method using a microplate reader. The method for calculating the cell count involved: 1) obtaining the mean value of a medium alone, 2) subtracting the mean value of the medium from each well, 3) obtaining the mean value of DMSO, 4) dividing the medium mean value-subtracted value by the mean value of DMSO and then multiplying by 100, and 5) obtaining the mean value of each treatment group and a standard deviation, and preparing a graph. IC50 was calculated according to the following expression: IC50=10(LOG(A/B)×(50−C)/(D−C)+LOG(B) wherein A: a higher concentration of two concentrations sandwiching 50%, B: a lower concentration of two concentrations sandwiching 50%, C: the rate of inhibition at B, and D: the rate of inhibition at A.
In general terms: Formazan colour is commonly taken as a measure of viable cells.

In data set [2] the test system is SW480 cells. The description is as above. The class given is cell-based, human. The conditions noted are these: WST-8. How it is done: as §1
In data set [3] the test system is A2058 cells. Briefly: Cytotoxicity test by WST assay, IC50 24 hours after administration. The format is cell-based, human. The conditions noted are these: WST-8. Here is the method: (§2) From the cell lines mentioned above, a large intestine cancer cell line SW480 was used as cells expressing PD-1, a large intestine cancer cell line RKO was used as cells expressing PD-L1, and a malignant melanoma cell line A2058 and a pancreatic cancer cell line MIA PaCa-2 were used as cells expressing CTLA-4. The cells of each line were inoculated at 3000 cells/well to a 96-well microplate and cultured overnight. On the next day, the cells were treated with CCC07-01 having a concentration of 0.1, 1, 10, 30, 100, 300, or 1000 nM (1 μM) for 24 hours. Then, WST-8 reagent was added to each well using Cell counting kit-8, and the mixture was reacted for 2 hours. Then, the cell count was calculated at a wavelength of 450 nm by the colorimetric analysis method using a microplate reader. The method for calculating the cell count involved: 1) obtaining the mean value of a medium alone, 2) subtracting the mean value of the medium from each well, 3) obtaining the mean value of DMSO, 4) dividing the medium mean value-subtracted value by the mean value of DMSO and then multiplying by 100, and 5) obtaining the mean value of each treatment group and a standard deviation, and preparing a graph. IC50 was calculated according to the following expression: IC50=10(LOG(A/B)×(50−C)/(D−C)+LOG(B) wherein A: a higher concentration of two concentrations sandwiching 50%, B: a lower concentration of two concentrations sandwiching 50%, C: the rate of inhibition at B, and D: the rate of inhibition at A.
(§3) The cells used in the experiment were RKO (large intestine cancer), SW480 (large intestine cancer), A2058 (malignant melanoma), and MIA PaCa-2 (pancreatic cancer).

The subject of data set [4] is RKO cells. The description is as above. The class given is cell-based, human. The following applies: WST-8. How it is done:
as §2, §3

For data set [5], the system named is SW480 cells. The description is as above. The class given is cell-based, human. The conditions noted are these: WST-8. How it is done: as §2, §3
For data set [6], the system named is subcutaneously transplanted RKO tumor. Briefly: Tumor volume in RKO-transplanted humanized NSG mice. The format is in vivo. The conditions noted are these: humanized NSG mouse. Here is the method:
1×10^7 cells of human PBMC (Precision Bioservices Inc.) were intravenously transplanted to each NSG mouse (NOD.Cg-Prkdc^scidI/2rg^tm1Wj1/SzJ; Charles River Laboratories Japan, Inc.) to prepare a humanized NSG mouse. One week after the PBMC transplantation, 1×10^7 RKO cells (ATCC) were subcutaneously transplanted to each humanized NSG mouse. After the transplantation, CCC07-01 was intravenously administered at 2.3 or 9.2 mg/kg to the mouse when tumorigenesis was able to be confirmed. The tumor size was measured over time, and the tumor volume (mm^3) was calculated according to the expression: Tumor volume=[…]. One week after the CCC07-01 administration, the spleen was harvested and homogenized in 2% FBS/PBS to prepare a cell suspension. The spleen cells were stained with a fluorescently labeled anti-human CD4 antibody, anti-human CD8 antibody and anti-human Foxp3 antibody and analyzed for the numbers of cytotoxic T cells (CD8-positive cells) and regulatory T cells (Treg: CD4-positive and Foxp3-positive cells) using a flow cytometer. Statistical processing was performed by the Mann-Whitney U test, and the significance level was set to P<0.05.

Data set [7] can be described thus: log-P (octanol/water partition coefficient) by HPLC, indole/curcumin calibration curve. The conditions noted are these: calculated from indole/curcumin calibration curve, listed as CCC07-001. The class given is physicochemical. Here is the method: The polyamides were further analyzed for log-P (octanol/water partition coefficient) by HPLC. The retention times of 2 types of compounds (compound names) having a known log-P value and the polyamides were measured in the presence of a mixed solvent of 0.1% aqueous acetic acid solution and acetonitrile by HPLC using isocratic elution. […] The log-P values of the polyamides were calculated from the curve.

The subject of data set [8] is PD-1 gene. Briefly: Experiment to silence PD-1 gene (RT-PCR / real-time PCR). The class given is cell-based, human. The conditions noted are these: SW480 cells, 100 nM, 6 hours. How it is done:
SW480 cells were cultured in a 6-well plate. On the next day, the cells were treated with 0, 1, 10, or 100 nM CCC07-01 for 6 hours. The cells were collected, and total RNA was extracted therefrom. The extraction employed RNeasy Plus Mini Kit (Qiagen N.V., CA). Next, cDNA was prepared by reverse transcription with the extracted RNA as a template according to Super Script VILO cDNA Synthesis kit (Invitrogen Corp., CA). RT-PCR was performed with the cDNA as a template under the following conditions: the conditions for PD-1 involved denaturation at 95° C. and then 33 cycles each involving 95° C. for 30 seconds, 56° C. for 30 seconds, and 72° C. for 30 seconds, followed by elongation reaction at 72° C. for 5 minutes. For a control, RT-PCR of GAPDH was performed using the same cDNA as above. The conditions for GAPDH involved denaturation at 95° C. and then 22 cycles each involving 95° C. for 30 seconds, 55° C. for 30 seconds, and 72° C. for 30 seconds, followed by elongation reaction at 72° C. for 5 minutes.
Each RT-PCR product was electrophoresed on 2% agarose and stained with ethidium bromide. qPCR was further performed. […] A relative expression level was quantified with GAPDH as a control.

SMILES strings stand for the structures.

Broadly, the IC50 is the concentration needed to halve the response being measured. The low end stands for greater potency in that assay, the high end for weaker potency in that assay. For `CC(=O)Nc1cn(C)c(C(=O)Nc2cc(C(=O)Nc3cn(C)c(C(=O)Nc4cn(C)c(C(=O)NCCC(=O)Nc5cc(C(=O)Nc6cc(C(=O)NCCCC(=O)Nc7cc(C(=O)Nc8cn(C)c(C(=O)NCCC(=O)Nc9cc(C(=O)Nc%10cc(C(=O)Nc%11ccc%12[nH]c(C(=O)N%13CC(CCl)c%14c%13cc(O)c%13ccccc%14%13)cc%12c%11)n(C)c%10)n(C)c9)n8)n(C)c7)n(C)c6)n(C)c5)n4)n3)n(C)c2)n1` (stereo not drawn) [CCC07-01], the IC50 in data set [1] came out at 4 nM; in data set [2], 11 nM; in data set [3], 11 nM; in data set [4] it was 12 nM; in data set [5] it was 27 nM. Also, the values for the T/C ratio in data set [6] (2.3 mg/kg intravenous) and in data set [6] (9.2 mg/kg intravenous) were 56.0% and 41.5%, respectively. In addition, in data set [7], the logPow is 3.13. The “expression of PD-1” value in data set [8] is recorded as “markedly decreased”.

(Values after US20190262457A1, “NOVEL ALKYLATING AGENT” (CHIBA-PREFECTURE, priority 2016, published 2019).)
